The values below come from publication PMC3793931 (PLoS ONE, 2013).

One data set concerns 5-LO. As to conditions: cited from earlier work.
Data set [1] concerns the target T1, microsomal prostaglandin E2 synthase-1 (mPGES-1) (Homo sapiens, UniProt O14684).
T1 sequence (O14684 1-152): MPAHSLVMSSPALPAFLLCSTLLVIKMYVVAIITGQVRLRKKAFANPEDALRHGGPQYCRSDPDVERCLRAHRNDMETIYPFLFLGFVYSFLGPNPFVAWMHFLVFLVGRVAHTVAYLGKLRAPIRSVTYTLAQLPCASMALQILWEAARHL
Kind of data set: biochemical. As to conditions: cell-free, A549 microsomes; n=3; >10 = significant inhibition at 10 µM, >>10 = no significant inhibition at 10 µM.
Method: Preparations of human A549 cells and determination of mPGES-1 activity was performed as described previously [10]. In brief, cells were treated with 1 ng/mL interleukin-1β (IL-1β) for 48 h at 37 °C, 5% CO2. Cells were harvested, sonicated and the homogenate was subjected to differential centrifugation at 10,000×g for 10 min and 174,000×g for 1 h at 4 °C. The pellet (microsomal fraction) was resuspended in 1 ml homogenization buffer (0.1 M potassium phosphate buffer, pH 7.4, 1 mM phenylmethanesulfonyl fluoride, 60 µg/mL soybean trypsin inhibitor, 1 µg/mL leupeptin, 2.5 mM glutathione, and 250 mM sucrose), and the total protein concentration was determined. Microsomal membranes were diluted in potassium phosphate buffer (0.1 M, pH 7.4) containing 2.5 mM glutathione. Test compounds or vehicle (0.1% DMSO) were added, and after 15 min at 4 °C reaction (100 µl total volume) was initiated by addition of PGH2 at the indicated concentrations. After 1 min at 4 °C, the reaction was terminated using stop solution (100 µl; 40 mM FeCl2, 80 mM citric acid, and 10 µM 11β-PGE2 as internal standard). PGE2 was separated by solid-phase extraction and analyzed by RP-HPLC as described previously [10].

The target of another data set is T2, 5-LO in PMNL (Homo sapiens, UniProt P09917).
T2 sequence (P09917 1-674): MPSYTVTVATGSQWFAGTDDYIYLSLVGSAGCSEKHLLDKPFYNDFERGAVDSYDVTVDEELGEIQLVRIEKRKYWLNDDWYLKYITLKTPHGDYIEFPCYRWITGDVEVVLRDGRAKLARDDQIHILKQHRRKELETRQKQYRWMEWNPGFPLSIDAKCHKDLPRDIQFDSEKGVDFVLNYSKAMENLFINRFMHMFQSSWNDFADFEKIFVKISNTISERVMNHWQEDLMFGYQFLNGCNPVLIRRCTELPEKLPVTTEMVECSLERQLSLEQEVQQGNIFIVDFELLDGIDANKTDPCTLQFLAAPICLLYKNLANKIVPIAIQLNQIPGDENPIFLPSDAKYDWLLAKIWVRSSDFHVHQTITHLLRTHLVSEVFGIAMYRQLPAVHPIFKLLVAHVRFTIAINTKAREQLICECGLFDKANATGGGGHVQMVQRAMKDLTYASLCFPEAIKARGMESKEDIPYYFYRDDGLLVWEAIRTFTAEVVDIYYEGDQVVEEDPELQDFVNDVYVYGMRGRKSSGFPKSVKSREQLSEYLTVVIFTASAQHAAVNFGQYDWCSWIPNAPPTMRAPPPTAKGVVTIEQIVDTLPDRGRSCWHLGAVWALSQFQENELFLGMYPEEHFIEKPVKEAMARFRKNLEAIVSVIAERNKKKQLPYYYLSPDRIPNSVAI
Kind of data set: cell-based. As to conditions: intact human PMNL, A23187 2.5 µM + 20 µM AA, n=3, >10 = significant inhibition at 10 µM, >>10 = no significant inhibition at 10 µM.

The target of the next data set is T3, human recombinant 5-LO (Homo sapiens, UniProt P09917).
T3 sequence (P09917 1-674): T2 sequence (P09917 1-674)
Kind of data set: cell-free 5-LO activity assay with purified human recombinant 5-LO.

A further data set concerns COX-2. More on the design: method as in PMID 19289158. As to conditions: at 45 µM; cited from earlier work.
The subject of another data set is NF-κB. Kind of data set: NF-κB transactivation, luciferase reporter in TNF-α-stimulated HEK-293/NF-κB-luc cells. Type of data set: cell-based. Particulars: Homo sapiens. Here is the method: The transactivation of a NF-κB-driven luciferase reporter gene was quantified in HEK-293/NF-κB-luc cells (Panomics, RC0014) as previously described. […] Six hours later cells were seeded in 96-well plates and incubated at 37°C and 5% CO2 overnight. On the next day, the medium was exchanged with serum-free DMEM and cells were treated with the respective test compounds dissolved in DMSO. To account for potential unspecific effects of the solvent, the final concentration of DMSO was always adjusted to 0.1%. One hour after treatment the cells were stimulated with 2 ng/mL human recombinant TNF-α for 6 h, and after a lysis step the luminescence of the firefly luciferase and the fluorescence of EGFP were quantified on a GeniosPro plate reader (Tecan; Grödig, Austria). The luciferase signal derived from the NF-κB reporter was normalized by the EGFP-derived fluorescence to account for differences in cell number.
To estimate of cell viability one part of the experiments were performed in cells that were not transfected with pEGFP-C1, but instead stained for 1 h in serum-free medium supplemented with 2 μM Cell Tracker Green CMFDA (C2925; Invitrogen) as described. Since this fluorescent probe is retained inside living cells, it can be used to monitor cell membrane integrity and thus has been broadly used to quantify viable cells. For quantification of NF-κB activity in this experimental setting the luciferase-derived signal from the NF-κB reporter was normalized to the Cell Tracker Green CMFDA-derived fluorescence to account for differences in cell number. Potential differences in cell viability were monitored by comparison of the Cell Tracker Green CMFDA fluorescence of the solvent vehicle treated control cells and cells treated with the indicated compounds.
In general terms: In a reporter assay the amount or activity of a reporter protein is the signal.

The subject of the next data set is COX-1. More on the design: method as in PMID 19289158. As to conditions: at 45 µM; cited from earlier work.
The target in data set [2] is T4, inhibitor of NF-κB kinase subunit beta (IKK2) (Homo sapiens, UniProt O14920).
T4 sequence (O14920 1-756): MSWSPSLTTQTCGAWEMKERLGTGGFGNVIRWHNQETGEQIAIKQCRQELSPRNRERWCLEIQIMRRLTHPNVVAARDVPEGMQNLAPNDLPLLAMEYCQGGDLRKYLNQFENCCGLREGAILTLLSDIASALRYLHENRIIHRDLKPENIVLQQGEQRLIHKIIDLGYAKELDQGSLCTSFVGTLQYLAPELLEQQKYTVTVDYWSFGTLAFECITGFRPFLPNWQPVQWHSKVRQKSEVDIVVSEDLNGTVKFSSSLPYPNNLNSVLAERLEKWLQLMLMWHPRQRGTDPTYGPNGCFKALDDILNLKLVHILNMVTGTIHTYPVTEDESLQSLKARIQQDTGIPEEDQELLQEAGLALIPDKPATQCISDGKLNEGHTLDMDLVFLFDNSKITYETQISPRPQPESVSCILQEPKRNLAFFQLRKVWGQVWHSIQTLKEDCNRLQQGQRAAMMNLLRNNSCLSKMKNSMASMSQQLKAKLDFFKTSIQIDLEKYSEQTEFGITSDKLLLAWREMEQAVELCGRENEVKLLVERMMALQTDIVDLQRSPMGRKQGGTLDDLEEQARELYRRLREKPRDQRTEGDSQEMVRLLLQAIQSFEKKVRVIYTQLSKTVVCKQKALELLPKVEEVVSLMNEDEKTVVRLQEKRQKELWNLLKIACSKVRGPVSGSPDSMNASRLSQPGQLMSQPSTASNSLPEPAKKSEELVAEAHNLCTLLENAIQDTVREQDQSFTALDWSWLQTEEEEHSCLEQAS
Kind of data set: IKK2 kinase inhibition. Format: biochemical. As to conditions: at a concentration of up to 50 μM; data not shown. The text has this:
Luciferase reporter gene expression reflects a downstream event of the NF-κB signaling cascade and cannot provide insights into the molecular targets contributing to the observed NF-κB inhibition. Thus, we tested the active compounds 4 and 5 for their potential to suppress the activity of the inhibitor of NF-κB kinase subunit beta (IKK2) as previously described, since it is a prominent upstream target of the NF-κB signaling cascade. […] Accordingly, this kinase is not a direct target of the NF-κB inhibiting depsides 4 and 5.

The subject of another data set is B16-F10 melanoma cells. Particulars: cited from earlier work.
In the next data set the test system is UACC-62 melanoma cells. As to conditions: cited from earlier work.
Data set [3] concerns leukocyte recruitment to the peritoneum. Kind of data set: thioglycollate-induced peritonitis, leukocyte count in peritoneal lavage. Type of data set: in vivo, C57BL/6J mice. As to conditions: mouse. The text has this: C57BL/6J male, 8-9 weeks old mice were housed in individually ventilated cages and fed with mouse chow and acidified water ad libitum in the mouse facility of the Institute of Vascular Biology and Thrombosis Research (Vienna, Austria). Animal care and all experimental procedures were approved by the Animal Experimental Committee of the Medical University of Vienna and by the Austrian Ministry of Science (license no. BMWF-66.009/0117-II/3b/2012).
The mice of the treatment groups – sterile thioglycollate and perlatolic acid or thioglycollate alone - (3 animals per group) were pre-treated i.p. with 1 mL of 6 µM perlatolic acid or 1 µL of DMSO dissolved in 1 mL of saline. Thirty minutes later the animals were injected i.p. with another 3 mL of saline with or without sterile thioglycollate (4%), and containing again 2 μL DMSO or perlatolic acid. Five hours after the second injection mice were sacrificed by carbon dioxide exposure and peritoneal cavities were washed three times with 2 mL of cold PBS containing 3 mM EDTA and collected as intra-peritoneal lavage. The leukocyte count in the peritoneum of untreated control mice was assessed by lavage. Mice without thioglycollate treatment were used as controls. The volume of the collected lavage was measured and the cell count determined by haemocytometer.

Another data set relates to 12-LO. Further details: method as in PMID 15636173. As to conditions: cited from earlier work.
The mark [4] stands for this setting: HEK293, TNF-α-stimulated HEK-293/NF-κB-luc cells, n=3, read-out: NF-κB IC50.

SMILES strings stand for the structures. Where two headings read alike, the source gives them in different places.

Method for 5-LO in PMNL: The blood was centrifuged at 4,000×g for 20 min at 20°C for preparation of leukocyte concentrates. Leukocyte concentrates were subjected to dextran sedimentation and centrifugation on LSM 1077 cushions (PAA Laboratories, Linz, Austria). Contaminating erythrocytes of pelleted PMNL were lysed by hypotonic lysis. PMNL were washed twice in ice-cold PBS and finally resuspended in PBS pH 7.4 containing 1 mg/mL glucose and 1 mM CaCl2 (PGC buffer) (purity > 96-97%).
For determination of LO products in intact PMNL (5 × 10^6), cells were resuspended in 1 mL PGC buffer, preincubated for 15 min at 37°C with test compounds or vehicle (0.1% DMSO), and incubated for 10 min at 37°C with the indicated stimuli. Thus, the Ca^2+-ionophore A23187 (2.5 µM) was added together with 20 µM AA and 10 min later the reaction was stopped on ice by addition of 1 mL of ice-cold methanol. Then, 30 µL 1 N HCL and 500 µL PBS, and 200 ng prostaglandin B1 were added and the samples were subjected to solid phase extraction on C18-columns (100 mg, UCT, Bristol, PA, USA). 5-LO products (LTB4 and its trans-isomers and 5-H(P)ETE) were analyzed by RP-HPLC and quantities calculated on the basis of the internal standard PGB1.

As usually defined, the IC50 is the concentration that gives 50% inhibition. As to `COc1cc(C)c(C(=O)Oc2cc(C)c(C(=O)O)c(O)c2C)c(O)c1C=O` [baeomycesic acid], the IC50 in the data set on 5-LO (read-out: 5-LO IC50) was 8.3 µM.
As to `CCOC(=O)c1c(C)cc(O)c(C=O)c1O` [compound 1, ethyl haematommate], the IC50 in [1] is over 10 µM; at 5-LO in PMNL, over 10 µM; on human recombinant 5-LO, 7.6 µM.
With `COC(=O)c1c(C)cc(O)c(C)c1O` [compound 2, methylbetaorcinolcarboxylate], the half-inhibitory concentration (IC50) (in data set [1]; on 5-LO in PMNL; at human recombinant 5-LO) was over 10 µM throughout.
Regarding `COC(=O)c1c(C)cc(OC(=O)c2c(C)cc(O)c(C=O)c2O)c(C)c1O` [compound 3, atranorin], in the data set with 5-LO, the “activity against 5-LO” value was “inactive”. Besides, the COX-2 inhibition in the data set with COX-2 was about 45%. The IC50 in [1] is over 10 µM; at 5-LO in PMNL, over 10 µM; with NF-κB (setting [4]) it was 20 µM; at human recombinant 5-LO, over 10 µM. Moreover, the COX-1 inhibition in the data set with COX-1 is given as about 45%.
As to `CCCCCc1cc(OC)cc(O)c1C(=O)Oc1cc(O)c(C(=O)O)c(CCC)c1` [compound 4, imbricaric acid], the IC50 amounted to 1.9 µM in [1]; 5.3 µM at 5-LO in PMNL; 2 µM in the data set on NF-κB (HEK293, read-out: NF-κB IC50); 3.5 µM at human recombinant 5-LO. Also, in data set [2], the IKK2 inhibition result is reported as “did not inhibit IKK2”.
In the case of `CCCCCc1cc(OC(=O)c2c(O)cc(OC)cc2CCCCC)cc(O)c1C(=O)O` [compound 5, perlatolic acid], the IC50 turned out to be 0.4 µM in data set [1], 1.8 µM at 5-LO in PMNL, 7 µM in the data set on NF-κB (setting [4]) and 0.4 µM at human recombinant 5-LO. For the same compound, the “cytotoxicity on B16-F10 melanoma cells” value with B16-F10 melanoma cells was “moderate selective cytotoxicity”. Also, the IKK2 inhibition entry in [2] is recorded as “did not inhibit IKK2”. Further, the “cytotoxicity on UACC-62 melanoma cells” value in the data set with UACC-62 melanoma cells is recorded as “moderate selective cytotoxicity”. Moreover, the “reduction of thioglycollate-induced increase in total leukocyte count in peritoneal lavage fluid” value in data set [3] (i.p. co-administration, 5 h after TG injection, n=3, p<0.05) is 30-40%. Besides, the “toxic effects observed in the animals” value in data set [3] (i.p., acute inflammation model) was “no hints of toxic effects”.
For the compound `CCCCCc1cc(OC)cc(O)c1C(=O)O` [compound 6, 4-O-metylolivetolcarboxylic acid], the IC50 (in [1]; at 5-LO in PMNL; on human recombinant 5-LO) was over 10 µM throughout.
As to `CCCCCc1cc(OC)cc(O)c1C(=O)OCC` [compound 7, ethyl-4-O-methylolivetolcarboxylate], the IC50 (in [1]; at 5-LO in PMNL; on human recombinant 5-LO) was over 10 µM each time.
Regarding `CCCCCc1cc(O)cc(O)c1C(=O)OCC` [compound 8, ethyl olivetolate], the IC50 is over 10 µM in data set [1], 6.8 µM at 5-LO in PMNL and over 10 µM on human recombinant 5-LO.
On to `CCCCCc1cc(O)cc(OC)c1` [compound 9, olivetolmonomethylether], for which the IC50 in data set [1] was over 10 µM; on 5-LO in PMNL, over 10 µM; on human recombinant 5-LO, 7.2 µM.
As to `CCCCCc1cc(O)cc(O)c1` [compound 10, olivetol], the IC50 (in data set [1]; on 5-LO in PMNL) was over 10 µM throughout.
On to `CCCc1cc(O)cc(O)c1` [compound 11, divarinol], for which the IC50 (in [1]; on 5-LO in PMNL) was over 10 µM each time.
Take `CCCCCc1c2c(cc(O)c1C(=O)O)OC(=O)c1c(cc(OC)cc1C(=O)CCCC)O2` [lobaric acid]: the IC50 in the data set on 5-LO (read-out: 5-LO IC50) and in the data set on 12-LO was at least 28.5 µM each time.
For the compound `C=C1C(=O)O[C@H]2[C@H]1CC/C(C)=C/CC[C@@]1(C)O[C@@H]21` [parthenolide, reference compound], the IC50 in the data set with NF-κB (setting [4]) is 1.5 µM.
Consider `CC(c1cc2ccccc2s1)N(O)C(N)=O` (stereo not drawn) [zileuton], for which, in the data set on 5-LO (read-out: 5-LO IC50, data from the literature), the IC50 is […].
